Holding throughout (conditions): incubation time: 72 h
One assay has as its system MDA-MB-231. In words: normalised viability (% of control), CellTiter-Blue; higher = more viable cells (100 = DMSO, 0 = benzethonium chloride kill control). The protocol: (§1)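 DSRT, CellTiter-Blue viability, 72 h incubation. Signal is normalised to DMSO and benzethonium chloride controls. Value is the normalised response at dose 1.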
A further assay relates to MDA-MB-453. The description is as above. Here is the method: as §1
The next assay has as its system BT-474. The assay is described as above. Here is the method:
as §1

The test system of a further assay is DU-4475. The description is as above. Here is the method:
as §1

In another assay the test system is CAL-51. The description is as above. The protocol:
as §1

Another assay relates to HCC1937. The assay is described as above. Here is the method:
as §1

In the next assay the test system is MDA-MB-468. The description is as above. Here is the method:
as §1

Assay [1] concerns Hs578T. Described as above. Here is the method: as §1
A further assay concerns CAL-148. The description is as above. The protocol:
as §1

The test system of another assay is HDQ-P1. The assay is described as above. Here is the method: as §1
The subject of the next assay is MDA-MB-436. Described as above. The protocol:
as §1

The subject of the next assay is SK-BR-3. Described as above. Here is the method: as §1
Another assay concerns HCC1143. Described as above. Here is the method:
as §1

A further assay relates to HCC1599. The assay is described as above. The protocol:
as §1

The next assay deals with MFM-223. The description is as above. Here is the method: as §1
In another assay the test system is CAL-85-1. The assay is described as above. The protocol: as §1
The subject of a further assay is CAL-120. The description is as above. Here is the method: as §1
In the next assay the test system is BT-549. Described as above. Here is the method: as §1
Assay [2] has as its system Hs578T. Kind of assay: normalised response (% of control), CellTox Green; higher = less cell death (100 = DMSO, 0 = benzethonium chloride kill control). Put shortly: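 The table gives the normalised signal for a single concentration in each entry. Breast cancer cell lines were seeded (20 µl suspension) into 384-well plates holding compound at 5 concentrations in 10-fold steps over a compound-specific 10,000-fold range and incubated 72 h, then read for CellTox Green fluorescence (485/520 nm) and CellTiter-Glo luminescence. Normalisation on each plate used 0.1 % DMSO (100) and a positive kill control (0).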

Turning to `Cc1cccc(-c2nn3c(c2-c2ccnc4ccc(C(N)=O)cc24)CCC3)n1`, the normalised viability in the assay on MDA-MB-231 (0.1 nM) is 113%; in the assay on MDA-MB-453 (0.1 nM) it was 108%; in the assay with BT-474 (0.1 nM) it was 116%; with DU-4475 (0.1 nM), 113%; in the assay with CAL-51 (0.1 nM), 93.5%; in the assay on HCC1937 (0.1 nM), 91.3%. Further, the normalised viability in the assay on MDA-MB-468 (0.1 nM) was 108%; in the assay on Hs578T [1] (0.1 nM) it was 113%; with CAL-148 (0.1 nM) it was 104%; in the assay on HDQ-P1 (0.1 nM) it was 109%; in the assay on MDA-MB-436 (0.1 nM) it was 128%; in the assay on SK-BR-3 (0.1 nM), 106%. In addition, the normalised viability in the assay with HCC1143 (0.1 nM) was 110%; in the assay with HCC1599 (0.1 nM), 99.3%; in the assay with MFM-223 (0.1 nM), 103%; in the assay with CAL-85-1 (0.1 nM), 92.6%; with CAL-120 (0.1 nM), 98.2%; with BT-549 (0.1 nM) it was 104%.
Take `COc1ccc(-c2cc3c(C)nc(N)nc3n([C@H]3CC[C@H](OCCO)CC3)c2=O)cn1` (1000 nM): the normalised response in the assay on Hs578T [2] turned out to be 101%.
Turning to `COc1ccc(-c2cc3c(C)nc(N)nc3n([C@H]3CC[C@H](OCCO)CC3)c2=O)cn1` (10000 nM), the normalised response in the assay on Hs578T [2] worked out at 28.7%.
Consider `Nc1nc(=O)c2c([nH]1)NCC(CNc1ccc(C(=O)N[C@@H](CCC(=O)O)C(=O)O)cc1)N2C=O` (mixture of isomers) [Folinic acid], for which the normalised viability in the assay on MDA-MB-231 (0.099 nM) came to 101%; with MDA-MB-453 (0.099 nM) it was 104%; with BT-474 (0.099 nM), 91.7%; in the assay with DU-4475 (0.099 nM), 113%; with CAL-51 (0.099 nM), 92.7%; in the assay with HCC1937 (0.099 nM) it was 95.9%. For the same compound, the normalised viability with MDA-MB-468 (0.099 nM) came to 117%; in the assay with Hs578T [1] (0.099 nM), 105%; in the assay on CAL-148 (0.099 nM), 102%; in the assay on HDQ-P1 (0.099 nM) it was 131%; in the assay with MDA-MB-436 (0.099 nM) it was 113%; with SK-BR-3 (0.099 nM), 112%. Moreover, the normalised viability in the assay with HCC1143 (0.099 nM) was determined as 107%; in the assay on HCC1599 (0.099 nM), 117%; with MFM-223 (0.099 nM), 105%; with CAL-85-1 (0.099 nM), 98.4%; in the assay with CAL-120 (0.099 nM), 95.4%; in the assay on BT-549 (0.099 nM), 94.1%.
With `O=C(Nc1c[nH]nc1-c1nc2ccc(CN3CCOCC3)cc2[nH]1)NC1CC1` [AT9283] (1000 nM), the normalised response in the assay on Hs578T [2] worked out at 83.2%.
Consider `COc1cc(CCc2cc(NC(=O)c3ccc(N4CC(C)NC(C)C4)cc3)n[nH]2)cc(OC)c1` (centres undefined) [AZD4547] (100 nM), for which the normalised response with Hs578T [2] amounted to 94%.
On to `COc1cc(CCc2cc(NC(=O)c3ccc(N4CC(C)NC(C)C4)cc3)n[nH]2)cc(OC)c1` (centres undefined) [AZD4547] (1000 nM), for which the normalised response in the assay with Hs578T [2] is 115%.
On to `CCC/C=C/C=C/C(=O)O[C@H]1/C(=C/C(=O)OC)C[C@H]2C[C@H]([C@@H](C)O)OC(=O)C[C@H](O)C[C@@H]3C[C@H](OC(C)=O)C(C)(C)[C@](O)(C[C@@H]4C/C(=C/C(=O)OC)C[C@H](/C=C/C(C)(C)[C@]1(O)O2)O4)O3` [Bryostatin 1] (10 nM), for which, in the assay on Hs578T [2], the normalised response stood at 109%.
Turning to `CCC/C=C/C=C/C(=O)O[C@H]1/C(=C/C(=O)OC)C[C@H]2C[C@H]([C@@H](C)O)OC(=O)C[C@H](O)C[C@@H]3C[C@H](OC(C)=O)C(C)(C)[C@](O)(C[C@@H]4C/C(=C/C(=O)OC)C[C@H](/C=C/C(C)(C)[C@]1(O)O2)O4)O3` [Bryostatin 1] (100 nM), the normalised response in the assay with Hs578T [2] stood at 114%.
Still for that read-out and setting: for `CO[C@@H](C(=O)N1Cc2[nH]nc(NC(=O)c3ccc(N4CCN(C)CC4)cc3)c2C1)c1ccccc1` [Danusertib] (10000 nM) the value was -40.1%; for `Cc1nc(Nc2ncc(C(=O)Nc3c(C)cccc3Cl)s2)cc(N2CCN(CCO)CC2)n1` [Dasatinib] (100 nM), 90.8%.
Still for that read-out and setting: next, `Cc1nc(Nc2ncc(C(=O)Nc3c(C)cccc3Cl)s2)cc(N2CCN(CCO)CC2)n1` [Dasatinib] (1000 nM): 5.15%.
`Cc1c(CN2CCN(C(=O)[C@H](C)O)CC2)sc2c(N3CCOCC3)nc(-c3cnc(N)nc3)nc12` [GDC-0980] (1000 nM): the normalised response with Hs578T [2] amounted to 107%.
With `Cc1c(CN2CCN(C(=O)[C@H](C)O)CC2)sc2c(N3CCOCC3)nc(-c3cnc(N)nc3)nc12` [GDC-0980] (10000 nM), the normalised response in the assay on Hs578T [2] was 98.8%.
With `Nc1cccc2c1CN(C1CCC(=O)NC1=O)C2=O` (centres undefined) [Lenalidomide] (1000 nM), the normalised response with Hs578T [2] was found to be 94.5%.
The same measure, in the same setting: for `Nc1cccc2c1CN(C1CCC(=O)NC1=O)C2=O` (centres undefined) [Lenalidomide] (10000 nM) the value was 127%.
For the compound `C[C@]12O[C@H](C[C@]1(O)CO)n1c3ccccc3c3c4c(c5c6ccccc6n2c5c31)CNC4=O` [Lestaurtinib] (100 nM), the normalised response with Hs578T [2] is 96.2%.
Turning to `C[C@]12O[C@H](C[C@]1(O)CO)n1c3ccccc3c3c4c(c5c6ccccc6n2c5c31)CNC4=O` [Lestaurtinib] (1000 nM), the normalised response in the assay on Hs578T [2] worked out at 25.3%.
For `O=C1c2c(O)ccc(O)c2C(=O)c2c(NCCNCCO)ccc(NCCNCCO)c21` [Mitoxantrone] (100 nM), the normalised response in the assay on Hs578T [2] is 106%.
Turning to `O=C1c2c(O)ccc(O)c2C(=O)c2c(NCCNCCO)ccc(NCCNCCO)c21` [Mitoxantrone] (1000 nM), the normalised response in the assay with Hs578T [2] worked out at 112%.
Turning to `Nc1ccccc1NC(=O)c1ccc(CNc2nccc(-c3cccnc3)n2)cc1` [Mocetinostat] (1000 nM), the normalised response in the assay with Hs578T [2] stood at 59.8%.
For the compound `Nc1ccccc1NC(=O)c1ccc(CNc2nccc(-c3cccnc3)n2)cc1` [Mocetinostat] (10000 nM), in the assay with Hs578T [2], the normalised response amounted to 48.6%.
Regarding `COc1nc(N)nc2c1ncn2[C@@H]1O[C@H](CO)[C@@H](O)[C@@H]1O` [Nelarabine] (1000 nM), the normalised response with Hs578T [2] is 107%.
On to `COc1nc(N)nc2c1ncn2[C@@H]1O[C@H](CO)[C@@H](O)[C@@H]1O` [Nelarabine] (10000 nM), for which the normalised response in the assay with Hs578T [2] worked out at 91.4%.
Take `Cc1ccc(Nc2nccc(N(C)c3ccc4c(C)n(C)nc4c3)n2)cc1S(N)(=O)=O` [Pazopanib] (1000 nM): in the assay with Hs578T [2], the normalised response came to 110%.
